What was measured:
Type in all cases: biochemical
[1] = biological target: LRRK2 (full-length, from BAC-transgenic mouse brain) (Mus musculus, UniProt Q5S006); experiment: TR-FRET kinase assay with PLK-peptide
[2] = biological target: LRRK2 (human, wild-type) (Homo sapiens, UniProt Q5S007); experiment: TR-FRET kinase assay with PLK-peptide, […] h preincubation
[3] = biological target: LRRK2 (human, G2019S mutant) (Homo sapiens, UniProt Q5S007, G2019S); experiment: as above
Sequence of LRRK2 (human, G2019S mutant) (Q5S007 970-2527 G2019S): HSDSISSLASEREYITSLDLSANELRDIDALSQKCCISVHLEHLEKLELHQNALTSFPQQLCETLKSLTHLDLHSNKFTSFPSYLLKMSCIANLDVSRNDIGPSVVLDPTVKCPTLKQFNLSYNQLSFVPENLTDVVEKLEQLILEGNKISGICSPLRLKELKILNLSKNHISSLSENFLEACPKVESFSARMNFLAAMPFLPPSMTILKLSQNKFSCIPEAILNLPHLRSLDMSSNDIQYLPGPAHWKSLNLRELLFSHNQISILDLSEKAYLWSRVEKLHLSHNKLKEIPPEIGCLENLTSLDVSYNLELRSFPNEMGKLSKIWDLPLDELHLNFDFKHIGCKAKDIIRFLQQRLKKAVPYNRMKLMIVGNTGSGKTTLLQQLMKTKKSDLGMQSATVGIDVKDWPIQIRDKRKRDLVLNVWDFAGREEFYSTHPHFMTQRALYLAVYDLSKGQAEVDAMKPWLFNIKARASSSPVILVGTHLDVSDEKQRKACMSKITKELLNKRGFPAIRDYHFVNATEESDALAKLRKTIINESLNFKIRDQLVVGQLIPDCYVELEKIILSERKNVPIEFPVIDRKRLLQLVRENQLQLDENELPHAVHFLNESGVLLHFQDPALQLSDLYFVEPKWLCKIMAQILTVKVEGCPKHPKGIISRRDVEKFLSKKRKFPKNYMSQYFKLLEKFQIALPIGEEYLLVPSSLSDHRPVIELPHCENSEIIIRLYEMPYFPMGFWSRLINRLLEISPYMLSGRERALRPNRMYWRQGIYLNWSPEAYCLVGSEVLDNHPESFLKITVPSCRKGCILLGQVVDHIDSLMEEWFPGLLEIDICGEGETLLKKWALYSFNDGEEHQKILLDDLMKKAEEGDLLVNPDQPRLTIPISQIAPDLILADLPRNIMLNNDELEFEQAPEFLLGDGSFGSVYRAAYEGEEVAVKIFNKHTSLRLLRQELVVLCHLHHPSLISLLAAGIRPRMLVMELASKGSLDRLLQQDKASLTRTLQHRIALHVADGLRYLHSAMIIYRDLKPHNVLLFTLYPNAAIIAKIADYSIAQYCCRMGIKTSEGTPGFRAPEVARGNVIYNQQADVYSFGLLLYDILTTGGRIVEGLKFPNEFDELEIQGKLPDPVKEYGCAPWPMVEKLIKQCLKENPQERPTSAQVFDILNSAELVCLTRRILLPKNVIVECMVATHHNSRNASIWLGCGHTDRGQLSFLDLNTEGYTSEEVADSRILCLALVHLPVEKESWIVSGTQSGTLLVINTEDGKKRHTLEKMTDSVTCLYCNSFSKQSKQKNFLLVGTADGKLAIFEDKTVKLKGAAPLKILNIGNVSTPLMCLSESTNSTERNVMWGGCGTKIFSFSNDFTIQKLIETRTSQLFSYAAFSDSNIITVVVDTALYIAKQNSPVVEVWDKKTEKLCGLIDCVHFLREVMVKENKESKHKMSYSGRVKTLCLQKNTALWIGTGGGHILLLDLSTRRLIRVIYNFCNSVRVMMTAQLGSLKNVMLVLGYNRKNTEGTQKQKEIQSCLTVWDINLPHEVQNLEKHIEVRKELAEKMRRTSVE

Sequence of LRRK2 (human, wild-type) (Q5S007 970-2527): as the sequence (Q5S007 970-2527 G2019S) above, with S1050G counted along it
Sequence of LRRK2 (full-length, from BAC-transgenic mouse brain) (Q5S006 whole entry): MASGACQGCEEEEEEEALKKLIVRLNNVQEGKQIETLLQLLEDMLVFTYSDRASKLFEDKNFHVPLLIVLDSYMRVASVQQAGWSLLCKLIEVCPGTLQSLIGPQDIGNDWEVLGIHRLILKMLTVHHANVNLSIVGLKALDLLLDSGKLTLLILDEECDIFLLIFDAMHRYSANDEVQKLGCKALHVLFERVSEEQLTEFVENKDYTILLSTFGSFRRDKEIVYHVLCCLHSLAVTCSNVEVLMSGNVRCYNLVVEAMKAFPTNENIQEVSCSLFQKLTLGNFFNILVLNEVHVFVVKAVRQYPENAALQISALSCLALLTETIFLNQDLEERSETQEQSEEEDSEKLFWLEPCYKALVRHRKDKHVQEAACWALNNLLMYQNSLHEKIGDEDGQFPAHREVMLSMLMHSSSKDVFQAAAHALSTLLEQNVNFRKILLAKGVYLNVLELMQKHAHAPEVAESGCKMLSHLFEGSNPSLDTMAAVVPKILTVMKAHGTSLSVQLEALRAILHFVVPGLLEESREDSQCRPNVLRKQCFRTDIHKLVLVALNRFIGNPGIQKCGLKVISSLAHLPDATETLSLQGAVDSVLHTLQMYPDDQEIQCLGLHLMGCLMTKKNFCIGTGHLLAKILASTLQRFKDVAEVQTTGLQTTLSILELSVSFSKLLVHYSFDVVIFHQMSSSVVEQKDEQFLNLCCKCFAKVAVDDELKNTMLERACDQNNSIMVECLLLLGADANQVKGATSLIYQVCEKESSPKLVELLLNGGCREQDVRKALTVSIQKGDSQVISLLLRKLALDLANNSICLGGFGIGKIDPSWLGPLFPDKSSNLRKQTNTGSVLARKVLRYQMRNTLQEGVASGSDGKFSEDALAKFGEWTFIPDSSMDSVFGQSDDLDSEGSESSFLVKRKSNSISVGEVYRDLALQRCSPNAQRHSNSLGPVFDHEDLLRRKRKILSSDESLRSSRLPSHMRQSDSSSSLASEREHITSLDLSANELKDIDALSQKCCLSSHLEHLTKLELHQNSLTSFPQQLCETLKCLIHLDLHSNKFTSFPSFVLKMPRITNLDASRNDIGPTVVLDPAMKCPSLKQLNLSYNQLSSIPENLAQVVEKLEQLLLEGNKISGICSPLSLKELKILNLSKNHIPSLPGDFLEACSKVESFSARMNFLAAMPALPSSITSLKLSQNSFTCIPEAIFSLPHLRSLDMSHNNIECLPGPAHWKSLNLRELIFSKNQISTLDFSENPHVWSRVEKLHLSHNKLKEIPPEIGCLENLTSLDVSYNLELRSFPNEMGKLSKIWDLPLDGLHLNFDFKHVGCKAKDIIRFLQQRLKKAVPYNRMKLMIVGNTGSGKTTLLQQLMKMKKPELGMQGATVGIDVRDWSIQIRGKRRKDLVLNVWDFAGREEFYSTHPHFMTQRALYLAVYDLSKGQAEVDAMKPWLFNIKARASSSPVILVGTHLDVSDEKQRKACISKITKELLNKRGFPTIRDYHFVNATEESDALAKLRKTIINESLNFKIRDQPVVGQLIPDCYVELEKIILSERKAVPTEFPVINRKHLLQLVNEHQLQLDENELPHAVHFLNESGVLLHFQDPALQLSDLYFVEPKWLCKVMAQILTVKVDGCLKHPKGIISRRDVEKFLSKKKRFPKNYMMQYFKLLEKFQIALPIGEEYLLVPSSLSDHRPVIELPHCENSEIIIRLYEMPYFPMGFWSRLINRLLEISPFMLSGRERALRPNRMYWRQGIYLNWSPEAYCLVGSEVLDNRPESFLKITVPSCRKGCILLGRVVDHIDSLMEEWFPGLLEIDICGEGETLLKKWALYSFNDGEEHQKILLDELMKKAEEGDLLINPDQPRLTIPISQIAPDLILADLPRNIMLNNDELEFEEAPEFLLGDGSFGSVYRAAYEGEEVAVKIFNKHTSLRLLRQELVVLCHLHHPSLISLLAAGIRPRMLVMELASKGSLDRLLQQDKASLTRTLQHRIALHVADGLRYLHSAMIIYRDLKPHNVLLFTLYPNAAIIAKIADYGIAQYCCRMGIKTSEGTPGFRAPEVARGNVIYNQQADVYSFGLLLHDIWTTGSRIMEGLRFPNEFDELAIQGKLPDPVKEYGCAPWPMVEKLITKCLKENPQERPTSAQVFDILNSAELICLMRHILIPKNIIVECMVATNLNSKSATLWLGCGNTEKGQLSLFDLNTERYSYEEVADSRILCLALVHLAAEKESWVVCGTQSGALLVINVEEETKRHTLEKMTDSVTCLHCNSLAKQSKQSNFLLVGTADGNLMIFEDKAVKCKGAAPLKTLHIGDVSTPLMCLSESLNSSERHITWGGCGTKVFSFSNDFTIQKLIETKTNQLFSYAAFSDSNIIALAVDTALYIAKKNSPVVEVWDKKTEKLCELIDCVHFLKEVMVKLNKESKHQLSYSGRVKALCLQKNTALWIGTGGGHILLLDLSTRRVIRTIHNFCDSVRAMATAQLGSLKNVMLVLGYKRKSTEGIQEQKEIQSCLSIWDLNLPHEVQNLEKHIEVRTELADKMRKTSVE

Substance: LDN-22684
- IC50 [1]: 5.4 ± 0.8 µM
- IC50 [2]: 6.1 ± 0.8 µM
- IC50 [3]: 6.9 ± 1 µM

— publication PMC2921631 (Analytical biochemistry, 2010)
